Measurements as given in patent US12466813B2, “PRC1 inhibitors and methods of treatment therewith” (The Regents of the University of Michigan, priority 2018, dated 2025).

Target: T1, RING1B-BMI1 (Homo sapiens, UniProt Q99496)
T1 sequence (Q99496 1-336): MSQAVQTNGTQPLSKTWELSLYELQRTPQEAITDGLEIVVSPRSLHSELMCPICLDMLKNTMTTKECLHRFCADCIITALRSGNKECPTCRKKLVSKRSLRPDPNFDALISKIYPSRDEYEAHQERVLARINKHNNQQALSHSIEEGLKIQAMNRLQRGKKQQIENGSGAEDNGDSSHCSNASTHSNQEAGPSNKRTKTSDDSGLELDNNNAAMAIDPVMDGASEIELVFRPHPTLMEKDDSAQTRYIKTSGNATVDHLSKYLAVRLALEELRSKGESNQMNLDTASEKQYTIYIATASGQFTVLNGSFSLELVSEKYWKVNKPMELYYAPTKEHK
T1 sequence (P35226 1-326 partner): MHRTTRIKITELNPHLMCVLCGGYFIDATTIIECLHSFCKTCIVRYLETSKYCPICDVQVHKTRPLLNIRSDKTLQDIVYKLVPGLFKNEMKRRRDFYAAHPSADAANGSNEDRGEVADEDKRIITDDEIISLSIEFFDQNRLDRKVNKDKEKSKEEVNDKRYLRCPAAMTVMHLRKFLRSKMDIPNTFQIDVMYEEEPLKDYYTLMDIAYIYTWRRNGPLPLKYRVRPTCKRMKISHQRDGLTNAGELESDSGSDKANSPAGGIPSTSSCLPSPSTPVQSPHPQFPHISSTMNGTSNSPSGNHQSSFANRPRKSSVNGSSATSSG
Experiment: KD classes of Table A (direct binding to Ring1B-Bmi1)
Settings: class given in Table A
Description: Experiments were conducted during development of embodiments herein to develop small molecule inhibitors of PRC1 by targeting the Ring1B-BMI1 E3 ligase. These compounds bind directly to Ring1B-Bmi1 with low-micromolar affinity and inhibit PRC1 in vitro and in cells. […] Experiments were conducted during development of embodiments herein to test COMPOUND 1 in leukemia stem cell models represented by TEX cells (Ref. 22; herein incorporated by reference in its entirety) and M9-ENL1 cells (Ref. 23; herein incorporated by reference in its entirety). […] In some embodiments, COMPOUND 1 and COMPOUND 1 analogs are find use as agents in targeting leukemia and other cancer stem cells.
The compounds listed in Table A have been synthesized and/or tested for activity in inhibiting activity of PRC1 complex, and are within the scope herein.

SMILES | Kd
CCc1c(-c2cccc3[nH]ccc23)[nH]c(C(=O)O)c1-c1cccc(C)c1 [compound 99] | 50 to 100 µM
O=C(O)c1ccc(-c2cccc3[nH]ccc23)[nH]1 [compound 134] | > 100 µM
CC(C)c1c(-c2cc(F)cc3[nH]ccc23)[nH]c(C(=O)O)c1-c1cccc2[nH]c(-c3cc[nH]n3)cc12 [compound 258] | < 20 µM
COc1cc(Cl)c(-c2c(C(=O)O)[nH]c(-c3cccc4[nH]ccc34)c2C(C)C)cc1N [compound 5] | < 20 µM
CCc1c(-c2cccc3[nH]ccc23)[nH]c(C(=O)O)c1-c1ccc2cc[nH]c2c1 [compound 25] | < 20 µM
CCc1c(-c2cccc3[nH]ccc23)[nH]c(C(=O)O)c1-c1ccc(O)cc1Cl [compound 92] | 50 to 100 µM
CC(C)c1c(-c2cc(F)cc3[nH]ccc23)[nH]c(C(=O)O)c1-c1cccc2[nH]c(S(N)(=O)=O)cc12 [compound 227] | < 20 µM
CC(C)c1c(-c2cc(F)cc3[nH]ccc23)[nH]c(C(=O)O)c1-c1cccc2c1ccn2CS(C)(=O)=O [compound 264] | < 20 µM
COc1ccc(-c2ccc(C(=O)O)[nH]2)cc1 [compound 157] | > 100 µM
CC(C)c1c(-c2cc(F)cc3[nH]ccc23)[nH]c(C(=O)O)c1-c1ccc(Oc2nccs2)cc1 [compound 62] | < 20 µM
CC(C)c1c(-c2cc(F)cc3[nH]ccc23)[nH]c(C(=O)O)c1-c1ccnc2[nH]c(C3=CCN(S(=O)(=O)N(C)C)CC3)cc12 [compound 257] | < 20 µM
CC(C)c1c(-c2cc(F)cc3[nH]ccc23)[nH]c(C(=O)O)c1-c1cccc2[nH]c3ccccc3c12 [compound 210] | < 20 µM
CCNc1ccc2[nH]ccc2c1-c1c(C(=O)O)[nH]c(-c2cc(F)cc3[nH]ccc23)c1C(C)C [compound 240] | < 20 µM
O=C(O)c1ccc(-c2ccccc2OCc2ccccc2)[nH]1 [compound 138] | > 100 µM
CC(C)c1c(-c2cc(F)cc3[nH]ccc23)[nH]c(C(=O)O)c1-c1ccc(Oc2ccncc2)cc1 [compound 63] | < 20 µM
COc1ccc(C)cc1-c1ccc(C(=O)O)[nH]1 [compound 137] | > 100 µM
CCc1c(-c2cccc3[nH]ccc23)[nH]c(C(=O)O)c1CC1CCCCC1 [compound 78] | 20 to 50 µM
CCc1c(-c2cccc3[nH]ccc23)[nH]c(C(=O)O)c1-c1cc(N)ccc1Cl [compound 80] | 20 to 50 µM
COc1cc(-c2c(C(=O)O)[nH]c(-c3cc(F)cc4[nH]ccc34)c2C(C)C)c2ccn(CC(=O)NCc3nc(C)cs3)c2c1 [compound 179] | < 20 µM
CC(C)c1c(-c2cccc3c2ccn3N)[nH]c(C(=O)O)c1-c1cccc2[nH]ccc12 [compound 214] | < 20 µM
COc1cccc(-c2ccc(C(=O)O)[nH]2)c1 [compound 141] | > 100 µM
CC(C)CCOc1cccc(-c2ccc(C(=O)O)[nH]2)c1 [compound 132] | > 100 µM
CC(C)c1c(-c2cc(F)cc3[nH]ccc23)[nH]c(C(=O)O)c1-c1ccnc2[nH]ccc12 [compound 74] | < 20 µM
CC(C)c1c(-c2cc(F)cc3[nH]ccc23)[nH]c(C(=O)O)c1-c1cccc2[nH]c(C(=O)Nc3ccccc3)cc12 [compound 260] | < 20 µM
CCc1cc(-c2c(C(=O)O)[nH]c(-c3cc(F)cc4[nH]ccc34)c2C(C)C)c2cc[nH]c2c1 [compound 45] | < 20 µM
CCc1c(-c2cccc3[nH]ccc23)[nH]c(C(=O)O)c1-c1ccc([N+](=O)[O-])cc1 [compound 114] | > 100 µM
CC(C)c1c(-c2cc(F)cc3[nH]ccc23)[nH]c(C(=O)O)c1-c1cc(Cl)cc2[nH]ccc12 [compound 41] | < 20 µM
CC(C)c1c(-c2cccc3[nH]ccc23)[nH]c(C(=O)O)c1-c1ccccc1Cl [compound 17] | < 20 µM
CC(C)c1c(-c2cc(F)cc3cc[nH]c23)[nH]c(C(=O)O)c1-c1c(Cl)ccc2[nH]ccc12 [compound 185] | < 20 µM

Next, values leading:

Kd | SMILES
> 100 µM | CCOc1ccccc1-c1ccc(C(=O)O)[nH]1 [compound 140]
< 20 µM | CNCc1ccc2[nH]ccc2c1-c1c(C(=O)O)[nH]c(-c2cc(F)cc3[nH]ccc23)c1C(C)C [compound 239]
> 100 µM | Nc1cccc(-c2ccc(C(=O)O)[nH]2)c1 [compound 125]
< 20 µM | CC(C)c1c(-c2cc(F)cc3[nH]ccc23)[nH]c(C(=O)O)c1-c1cccc2[nH]c(-c3ccccc3)cc12 [compound 259]
> 100 µM | CCc1c(-c2cccc3c2ccn3C)[nH]c(C(=O)O)c1-c1ccc(OC)cc1 [compound 108]
> 100 µM | O=C(O)c1ccc(-c2cccc3c2ccn3CCO)[nH]1 [compound 146]
> 100 µM | CCOC(=O)c1[nH]c(-c2cccc3[nH]ncc23)c(CC)c1-c1ccc(OC)cc1Cl [compound 163]
< 20 µM | CC(C)c1c(-c2cc(F)cc3[nH]ccc23)[nH]c(C(=O)O)c1-c1cccc2[nH]c(C(=O)NCc3nccs3)cc12 [compound 262]
20 to 50 µM | CCc1c(-c2cccc3[nH]ccc23)[nH]c(C(=O)O)c1-c1cccc2c1ccn2CCO [compound 77]
< 20 µM | CC(C)c1c(-c2cc(C(F)(F)F)cc3[nH]ccc23)[nH]c(C(=O)O)c1-c1c(Cl)ccc2[nH]ccc12 [compound 10]
< 20 µM | CC(C)c1c(-c2cc(F)cc3[nH]ccc23)[nH]c(C(=O)O)c1-c1c(C(F)(F)F)cnc2[nH]ccc12 [compound 248]
< 20 µM | CCc1c(-c2cccc3[nH]ccc23)[nH]c(C(=O)O)c1-c1ccccc1Cl [compound 65]
< 20 µM | COCCC(=O)NCCc1c[nH]c2cc(F)cc(-c3[nH]c(C(=O)O)c(-c4c(Cl)ccc5[nH]ccc45)c3C(C)C)c12 [compound 72]
< 20 µM | CC(C)c1c(-c2cccc3[nH]ccc23)c(C(=O)O)n2c1-c1cc(F)cc3ccn(c13)C(=O)C2 [compound 274]
> 100 µM | O=C(O)c1ccc(-c2ccccc2)[nH]1 [compound 144]
< 20 µM | Cc1c[nH]c2nccc(-c3c(C(=O)O)[nH]c(-c4cc(F)cc5[nH]ccc45)c3C(C)C)c12 [compound 208]
< 20 µM | CC(C)c1c(-c2cc(F)cc3[nH]ccc23)[nH]c(C(=O)O)c1-c1ccnc2[nH]c(-c3ccccc3Cl)cc12 [compound 254]
< 20 µM | CC(C)c1c(-c2cccc3[nH]ccc23)c(C(=O)O)n2c1-c1cc(F)cc3ccn(c13)CC2 [compound 270]

Kd | SMILES
20 to 50 µM | CCc1c(-c2cccc3c2ccn3C)[nH]c(C(=O)O)c1-c1ccccc1Cl [compound 88]
< 20 µM | CC(C)c1c(-c2cc(F)cc3[nH]ccc23)[nH]c(C(=O)O)c1-c1cccc2[nH]c(-c3cc(O)no3)cc12 [compound 226]
< 20 µM | CCC(C)c1c(-c2cc(F)cc3[nH]ccc23)[nH]c(C(=O)O)c1-c1cc(OC)cc2[nH]ccc12 (stereo not shown) [compound 171]
< 20 µM | C#CCOCCOCCOCCC(=O)NCCc1c[nH]c2cc(F)cc(-c3[nH]c(C(=O)O)c(-c4c(Cl)ccc5[nH]ccc45)c3C(C)C)c12 [compound 69]
< 20 µM | COc1cc(-c2c(C(=O)O)[nH]c(-c3cc(F)cc4[nH]ccc34)c2C2CCCC2)c2cc[nH]c2c1 [compound 173]
50 to 100 µM | CCCc1c(-c2cccc3[nH]ccc23)[nH]c(C(=O)O)c1-c1ccccc1Cl [compound 95]
< 20 µM | CCOc1ccc(-c2c(C(=O)O)[nH]c(-c3cccc4[nH]ccc34)c2CC)c(Cl)c1 [compound 23]
< 20 µM | CC(C)c1c(-c2cc(F)cc3[nH]ccc23)[nH]c(C(=O)O)c1-c1cccc2[nH]ncc12 [compound 40]
< 20 µM | CC(C)c1c(-c2cc(F)cc3[nH]ccc23)[nH]c(C(=O)O)c1-c1c(Cl)cnc2[nH]ccc12 [compound 245]
> 100 µM | O=C(O)c1ccc(-c2ccc(C(F)(F)F)cc2)[nH]1 [compound 150]
< 20 µM | COc1cc(-c2c(C(=O)O)[nH]c(-c3cc(F)cc4[nH]ccc34)c2C(C)C)c2cc[nH]c2c1 [compound 39]
50 to 100 µM | CCc1c(-c2cccc3[nH]ccc23)[nH]c(C(=O)O)c1-c1ccc(C)cc1 [compound 100]
> 100 µM | CC(C)CCn1ccc2c(-c3ccc(C(=O)O)[nH]3)cccc21 [compound 124]
< 20 µM | CC(C)c1c(-c2cc(F)cc3[nH]ccc23)[nH]c(C(=O)O)c1-c1ccnc2[nH]c(C3=CCN(S(C)(=O)=O)CC3)cc12 [compound 256]
< 20 µM | CC(c1c(-c2cccc3[nH]ccc23)[nH]c(C(=O)O)c1-c1cccc2[nH]ccc12)C(F)F (stereo not shown) [compound 30, 4-(1,1-Difluoropropan-2-yl)-3,5-di(1H-indol-4-yl)-1H-pyrrole-2-carboxylic acid]
< 20 µM | CC(C)c1c(-c2cccc3[nH]ccc23)cn(CC(=O)O)c1-c1cccc2[nH]ccc12 [compound 76]
< 20 µM | Cc1cnc2[nH]ccc2c1-c1c(C(=O)O)[nH]c(-c2cc(F)cc3[nH]ccc23)c1C(C)C [compound 209]
